These results are taken from BindingDB's records for doi:10.1016/s0960-894x(03)00205-1 (Abbott Laboratories, 2003).

The structures appear in SMILES notation.

A short description of the test: Potassium channel opening activity in vitro using LtK cells transfected with Kir6.2/SUR2B exon 17.

`O=C(NCCCCCCCl)Nc1c(C(O)(C(F)(F)F)C(F)(F)F)ccc2ccccc12` [1-(6-Chloro-hexyl)-3-[2-(2,2,2-trifluoro-1-hydroxy-1-trifluoromethyl-ethyl)-naphthalen-1-yl]-urea] returned a concentration giving a half-maximal response (EC50) of 4.84 µM.
Then `O=C(Nc1c(C(O)(C(F)(F)F)C(F)(F)F)ccc2ccccc12)c1ccc(OC(F)(F)F)cc1` [N-[2-(2,2,2-Trifluoro-1-hydroxy-1-trifluoromethyl-ethyl)-naphthalen-1-yl]-4-trifluoromethoxy-benzamide], with over 10 µM.
For `CC(C)=CC(=O)Nc1c(C(O)(C(F)(F)F)C(F)(F)F)ccc2ccccc12` [3-Methyl-but-2-enoic acid [2-(2,2,2-trifluoro-1-hydroxy-1-trifluoromethyl-ethyl)-naphthalen-1-yl]-amide] the value was 0.046 µM; for `COc1ccc(C(=O)Nc2c(C(O)(C(F)(F)F)C(F)(F)F)ccc3ccccc23)cc1` [4-Methoxy-N-[2-(2,2,2-trifluoro-1-hydroxy-1-trifluoromethyl-ethyl)-naphthalen-1-yl]-benzamide], 0.417 µM.
For `CC(=O)Nc1c(C(O)(C(F)(F)F)C(F)(F)F)ccc2ccccc12` [N-[2-(2,2,2-Trifluoro-1-hydroxy-1-trifluoromethyl-ethyl)-naphthalen-1-yl]-acetamide] the value was 0.018 µM; for `O=C(Nc1c(C(O)(C(F)(F)F)C(F)(F)F)ccc2ccccc12)c1ccc(Cl)cc1` [4-Chloro-N-[2-(2,2,2-trifluoro-1-hydroxy-1-trifluoromethyl-ethyl)-naphthalen-1-yl]-benzamide], 0.57 µM; for `CC(C)CCC(=O)Nc1c(C(O)(C(F)(F)F)C(F)(F)F)ccc2ccccc12` [4-Methyl-pentanoic acid [2-(2,2,2-trifluoro-1-hydroxy-1-trifluoromethyl-ethyl)-naphthalen-1-yl]-amide], 0.049 µM.
In turn, `O=C(Nc1c(C(O)(C(F)(F)F)C(F)(F)F)ccc2ccccc12)c1ccccc1` [N-[2-(2,2,2-Trifluoro-1-hydroxy-1-trifluoromethyl-ethyl)-naphthalen-1-yl]-benzamide] showed a half-maximal effective concentration (EC50) of 0.044 µM.
For `CCCC(C)C(=O)Nc1c(C(O)(C(F)(F)F)C(F)(F)F)ccc2ccccc12` (configuration not stated) [2-Methyl-pentanoic acid [2-(2,2,2-trifluoro-1-hydroxy-1-trifluoromethyl-ethyl)-naphthalen-1-yl]-amide] the value was over 10 µM; for `O=C(Nc1c(C(O)(C(F)(F)F)C(F)(F)F)ccc2ccccc12)c1ccccc1Cl` [2-Chloro-N-[2-(2,2,2-trifluoro-1-hydroxy-1-trifluoromethyl-ethyl)-naphthalen-1-yl]-benzamide], 2.04 µM; for `O=C(Nc1c(C(O)(C(F)(F)F)C(F)(F)F)ccc2ccccc12)c1cccc(F)c1` [3-Fluoro-N-[2-(2,2,2-trifluoro-1-hydroxy-1-trifluoromethyl-ethyl)-naphthalen-1-yl]-benzamide], 0.044 µM.
For `CC(C)OC(=O)Nc1c(C(O)(C(F)(F)F)C(F)(F)F)ccc2ccccc12` [[2-(2,2,2-Trifluoro-1-hydroxy-1-trifluoromethyl-ethyl)-naphthalen-1-yl]-carbamic acid isopropyl ester] the value was 1.16 µM; for `O=C(Nc1c(C(O)(C(F)(F)F)C(F)(F)F)ccc2ccccc12)c1cnco1` [Oxazole-5-carboxylic acid [2-(2,2,2-trifluoro-1-hydroxy-1-trifluoromethyl-ethyl)-naphthalen-1-yl]-amide], 0.024 µM; for `CCCC(=O)Nc1c(C(O)(C(F)(F)F)C(F)(F)F)ccc2ccccc12` [N-[2-(2,2,2-Trifluoro-1-hydroxy-1-trifluoromethyl-ethyl)-naphthalen-1-yl]-butyramide], 0.131 µM.
For `O=C(Nc1ccc(Cl)cc1)Nc1c(C(O)(C(F)(F)F)C(F)(F)F)ccc2ccccc12` [1-(4-Chloro-phenyl)-3-[2-(2,2,2-trifluoro-1-hydroxy-1-trifluoromethyl-ethyl)-naphthalen-1-yl]-urea] the value was 0.276 µM.
Regarding `O=C(Nc1c(C(O)(C(F)(F)F)C(F)(F)F)ccc2ccccc12)c1cccc(Br)c1` [3-Bromo-N-[2-(2,2,2-trifluoro-1-hydroxy-1-trifluoromethyl-ethyl)-naphthalen-1-yl]-benzamide], the 50% effective concentration (EC50) is 0.08 µM.
With `CCC(=O)Nc1c(C(O)(C(F)(F)F)C(F)(F)F)ccc2ccccc12` [N-[2-(2,2,2-Trifluoro-1-hydroxy-1-trifluoromethyl-ethyl)-naphthalen-1-yl]-propionamide], the EC50 is 0.015 µM.
For `CC(=O)Nc1c(C(O)(C(F)(F)F)C(F)(F)F)ccc2c(O)cccc12` [N-[5-Hydroxy-2-(2,2,2-trifluoro-1-hydroxy-1-trifluoromethyl-ethyl)-naphthalen-1-yl]-acetamide] the value was 0.137 µM; for `CC(=O)Nc1c(C(O)(C(F)(F)F)C(F)(F)F)ccc2cc(O)ccc12` [N-[6-Hydroxy-2-(2,2,2-trifluoro-1-hydroxy-1-trifluoromethyl-ethyl)-naphthalen-1-yl]-acetamide], 2.22 µM; for `O=C(Nc1c(C(O)(C(F)(F)F)C(F)(F)F)ccc2ccccc12)c1cccc(Cl)c1` [3-Chloro-N-[2-(2,2,2-trifluoro-1-hydroxy-1-trifluoromethyl-ethyl)-naphthalen-1-yl]-benzamide], 0.098 µM.
For `O=C(Nc1c(C(O)(C(F)(F)F)C(F)(F)F)ccc2ccccc12)c1ccc(-c2ccccc2)cc1` [Biphenyl-4-carboxylic acid [2-(2,2,2-trifluoro-1-hydroxy-1-trifluoromethyl-ethyl)-naphthalen-1-yl]-amide] the value was over 10 µM; for `O=C(Nc1c(C(O)(C(F)(F)F)C(F)(F)F)ccc2ccccc12)c1cnc2ccccc2n1` [Quinoxaline-2-carboxylic acid [2-(2,2,2-trifluoro-1-hydroxy-1-trifluoromethyl-ethyl)-naphthalen-1-yl]-amide], 0.317 µM; for `O=C(Nc1c(C(O)(C(F)(F)F)C(F)(F)F)ccc2ccccc12)c1cc(Cl)cc(Cl)c1` [3,5-Dichloro-N-[2-(2,2,2-trifluoro-1-hydroxy-1-trifluoromethyl-ethyl)-naphthalen-1-yl]-benzamide], 0.306 µM.
Then `CC(C)C(=O)Nc1c(C(O)(C(F)(F)F)C(F)(F)F)ccc2ccccc12` [N-[2-(2,2,2-Trifluoro-1-hydroxy-1-trifluoromethyl-ethyl)-naphthalen-1-yl]-isobutyramide], with 6.63 µM.
As to `O=C(Nc1c(C(O)(C(F)(F)F)C(F)(F)F)ccc2ccccc12)c1ccc(C(F)(F)F)cc1` [N-[2-(2,2,2-Trifluoro-1-hydroxy-1-trifluoromethyl-ethyl)-naphthalen-1-yl]-4-trifluoromethyl-benzamide], the EC50 worked out at 0.16 µM. This EC50 is about 41-fold lower than that of the compound before.
Then `O=C(Nc1c(C(O)(C(F)(F)F)C(F)(F)F)ccc2ccccc12)c1cccs1` [Thiophene-2-carboxylic acid [2-(2,2,2-trifluoro-1-hydroxy-1-trifluoromethyl-ethyl)-naphthalen-1-yl]-amide], with 0.012 µM; and `O=C(Nc1c(C(O)(C(F)(F)F)C(F)(F)F)ccc2ccccc12)c1cccnc1` [N-[2-(2,2,2-Trifluoro-1-hydroxy-1-trifluoromethyl-ethyl)-naphthalen-1-yl]-nicotinamide], with 0.06 µM.
